Measured values from patent US10111885B2, “Compositions and therapeutic methods for the treatment of complement-associated diseases” (Resverlogix Corp., priority 2015, dated 2018).
pIC50: −log10 of the molar value. Like-named read-outs stand apart in the source and are kept apart here.

Key:
C3 mRNA = test: Complement gene mRNA expression, TaqMan real-time PCR, Huh-7 cells; assay type: cell-based, human; details: for pIC50: Huh-7, 48 h treatment, read-out: C3 (48 h) mRNA, half maximal inhibitory concentration (IC50)
Text: In this example, mRNA levels from cultured cells were quantitated. The assay can be used to determine the effect of compound(s) on regulating mRNA levels, including those compounds in the present invention. Complement genes are expressed at high endogenous levels, but their expression can also be stimulated with various cytokines in inflammatory conditions. Experiments in this example target both basal and inflammatory complement gene expression. Compound mediated changes in gene expression and resulting mRNA levels are presented in Tables 2, 3 and 4 as well as FIGS. 1, 2, 3 and 4 below.
(§1) Huh-7 and HepG2 cells are liver-derived cell lines and are models for what can occur in the liver. Huh-7 cells (JCRB Cell Bank) were introduced to 96-well plates (^˜2.5×10^5 per well) in 100 μL DMEM containing 10% (v/v) FBS, 100 U/mL penicillin, 100 ug/mL streptomycin and 5 ug/mL plasmocin (all reagents from Gibco, except for the former, which was obtained from Invivogen). After 24 h, Huh-7 cells were treated with compounds in the same media formulation used for plating, and supplemented with 0.1% DMSO for the amount of time indicated in tables 2, 3, and 4. For select experiments, 24 h post-plating, cells were treated with cytokines and the compound of interest simultaneously, for a total treatment time of 48 h. Alternatively, 24 h after plating, cells were pre-treated with cytokines for 24 h before adding the compound of interest for 48 h. HepG2 cells (ATCC) were cultured in 96-well plates (^˜2.5×10^5 per well) in MEM containing 10% FBS, 1× non-essential amino acids, 1 mM sodium pyruvate, 2 mM L-glutamine, 100 U/mL penicillin, 100 ug/mL streptomycin and 5 ug/mL plasmocin. Serum amount was reduced to 0.5% for treatments with compound or cytokines. Timing of treatment of HepG2 cells with compounds and cytokines was as described for Huh-7 cells. Primary human hepatocytes (CellzDirect/Life Technologies) were plated in collagen coated 96-well plates at 70 000 cells/well, then overlaid with Matrigel™ as recommended by the supplier. Cells were treated with compounds of interest and/or cytokines for the indicated time points in the recommended media supplemented with 0.1% DMSO and 10% FBS (v/v). Cells were harvested by mRNA Catcher PLUS Kit (Life Technologies) followed by real-time PCR using the RNA UltraSense One-Step qRT-PCR System. The level of the mRNA of interest was measured by TaqMan real-time PCR relative to the endogenous control cyclophilin A in the same sample. Data were acquired using the ViiA-7 Real Time PCR System (Applied Biosystems).
Downregulation of expression of components of the complement cascade will result in reduced activity of the pathway and thus will constitute a positive result. Tables 2 and 3 list the concentration of compounds at which the level of the indicated mRNA is reduced by 50%, as well as the duration of treatment with compound. Table 4 lists the maximum reduction in the indicated mRNA measured in primary human hepatocytes treated with compounds for up to 72 hours. FIGS. 1, 2, 3 and 4 show effects of compounds on cytokine-induced (i.e. inflammatory) expression of complement genes in Huh-7 cells and HepG2 cells.

MBL2 mRNA = test: Complement mRNA expression in primary human hepatocytes; assay type: cell-based; details: 0.3 uM, maximum at 24 h, single donor
Description: as §1, with “sample.” for “sample. Data were acquired using the ViiA-7 Real Time PCR System (Applied Biosystems).”

complement C1S mRNA = test: as above; assay type: cell-based; details: 0.3 uM, maximum at 72 h, single donor
Description: as §1, with “sample.” for “sample. Data were acquired using the ViiA-7 Real Time PCR System (Applied Biosystems).”

complement C2 mRNA = test: as above; assay type: cell-based; details: 0.3 uM, maximum at 72 h, single donor
Description: as §1, with “sample.” for “sample. Data were acquired using the ViiA-7 Real Time PCR System (Applied Biosystems).”

complement C3 mRNA = test: as above; assay type: cell-based; details: 0.3 uM, maximum at 24 h, single donor
Description: as §1, with “sample.” for “sample. Data were acquired using the ViiA-7 Real Time PCR System (Applied Biosystems).”

complement C4 mRNA = test: as above; assay type: cell-based; details: 0.3 uM, maximum at 24 h, single donor
Description: as §1, with “sample.” for “sample. Data were acquired using the ViiA-7 Real Time PCR System (Applied Biosystems).”

complement C5 mRNA = test: as above; assay type: cell-based; details: 0.3 uM, maximum at 24 h, single donor
Description: as §1, with “sample.” for “sample. Data were acquired using the ViiA-7 Real Time PCR System (Applied Biosystems).”

complement C9 mRNA = test: as above; assay type: cell-based; details: 0.3 uM, maximum at 48 h, single donor
Description: as §1, with “sample.” for “sample. Data were acquired using the ViiA-7 Real Time PCR System (Applied Biosystems).”

[1] = test system: alternative complement pathway activity; test: Complement alternative pathway (AH50) assay on clinical serum samples; assay type: in vivo, human; details: ASSURE trial, 26 weeks vs baseline
Description: The method can be used to determine the effect of compounds, including those in the present invention, on the activity of the classical and alternative complement system in clinical samples. […] Using the CH50 screening assay to detect the hemolysis of sheep erythrocytes sensitized by specific antibodies, the hemolytic activity of the complement system in serum samples from treated and untreated subjects was measured. Likewise, using specific conditions to activate only the alternative pathway (AH50), activity of the complement response was measured. The degree of complement activation was measured at baseline and terminally to determine if there were any changes in the function of the complement system following drug treatment (FIG. 7). Reduced function of the complement system constitutes a positive result.

Compound	IC50 (C3 mRNA; Homo sapiens, Huh-7, 48 h treatment (Table 3), read-out: mRNA expression in Huh-7 cells: IC50 (uM), C3) [µM]	pIC50 (C3 mRNA; Homo sapiens)	MBL2 percent maximal reduction in gene expression (MBL2 mRNA)	C1S percent maximal reduction in gene expression (complement C1S mRNA)	C2 percent maximal reduction in gene expression (complement C2 mRNA)	C3 percent maximal reduction in gene expression (complement C3 mRNA)	C4 percent maximal reduction in gene expression (complement C4 mRNA)	C5 percent maximal reduction in gene expression (complement C5 mRNA)	C9 percent maximal reduction in gene expression (complement C9 mRNA)	expression of complement component 3 at the mRNA level (FIG. 3) (C3 mRNA; Huh-7 pre-treated with cytokines)	expression of complement component 3 at the mRNA level (FIG. 1) (C3 mRNA; Huh-7 treated simultaneously with cytokines)	complement activity in clinical samples, AHSO assay (FIG. 7A) [1]
Cc1sc2c(c1C)C(c1ccc(Cl)cc1)=N[C@@H](CC(=O)OC(C)(C)C)c1nnc(C)n1-2 [JQ1, (S)-tert-butyl 2-(4-(4-chlorophenyl)-2,3,9-trimethyl-6H-thieno[3,2-f][1,2,4]triazolo[4,3-a][1,4]diazepin-6-yl)acetate, reference compound]	0.18	6.70	93% (24 h)	22% (72 h)	29% (72 h)	54% (24 h)	31% (24 h)	67% (24 h)	72% (48 h)	–	–	–
COc1cc(OC)c2c(=O)[nH]c(-c3cc(C)c(OCCO)c(C)c3)nc2c1 [RVX000222, 2-(4-(2-hydroxyethoxy)-3,5-dimethylphenyl)-5,7-dimethoxyquinazolin-4(3H)-one]	–	5.72	–	–	–	–	–	–	–	reduces expression	reduces expression	reduces complement activity
